Where a SMILES comes first, the peptide text is derived from it. The star is where a group is joined. Cbz = O=C(OCc1ccccc1)*
Test system: Stat-1-specific proteases in PBMC extracts
Experiment: Effect of protease inhibitors on Stat-1 protein degradation in mixed PBMC extracts (Western blot)
Assay type: biochemical, human
Settings: healthy control PBMC extract mixed with CFS patient PBMC extract (RNase L ratio=3.0), 37 C, 15 minutes; inhibitor 50 micromolar final concentration; anti-Stat-1 Western blot (FIG. 4)
Method: One of the two extracts used was from a healthy control (i.e., RNase L ratio<0.2; no protease present, detectable levels of Stat-1 protein). The other extract was from a patient with CFS (i.e., RNase L ratio>2.0; protease(s) present, no detectable level of Stat-1 protein).
Sixty (60) micrograms of PBMC extract from the healthy control was mixed with 60 micrograms of PBMC extract from a CFS patient and incubated at 37 C for 15 minutes in the presence of a) buffer only, b) DMSO (solvent for the protease inhibitors), c) Calpastatine, 50 micromolar final concentration, d) Calpain Inhibitor Type I, 200 micromolar final concentration, e) Calpain Inhibitor Type II, 200 micromolar final concentration, f) Caspase 3 Inhibitor Type II, 5 micromolar final concentration, or g) Proteasome Inhibitor (MG 132), 50 micromolar final concentration. All protease inhibitors above, as well as DMSO, were from Sigma Chemical Company.
After the 15 minute incubation, 2×SDS-PAGE gel sample dye was added and the sample heated to 95 C for five minutes to denature the proteins. The denatured samples were then subjected to standard SDS-PAGE using a 4 percent stacking gel and 10 percent separating gel. Transfer to PVDF membrane, Western blot with anti-Stat-1 antibody, and color development were performed exactly as described above.

`CC(C)C[C@@H](C=O)NC(=O)[C@H](CC(C)C)NC(=O)[C@H](CC(C)C)NC(=O)OCc1ccccc1` [MG 132] (Cbz-Leu-Leu-Leu-aldehyde) was tested, and the “degradation of Stat-1 protein” value was “inhibited”.

From patent US7527938B2, “Methods for diagnosis and treatment of chronic immune diseases” (R.E.D. Laboratories N.V./S.A., priority 2001, dated 2009)
